Where two headings read alike, the source gives them in different places.
How the values were obtained:
[1] = therapeutic total cmax; ref PMID; cited from earlier work
PHH 2D sandwich cultures = conditions: PHH 2D sandwich cultures, 100x Cmax; ref Xu 2008; cited from earlier work
[2] = ref DrugBank and Prescribers' Digital Reference database; cited from earlier work
[3] = system: PHH spheroids (hanging-drop); conditions: cited from earlier work; for Hanging-drop spheroids (Proctor 2017) 100x: PHH hanging-drop spheroids, 100x Cmax, ref Proctor 2017
[4] = system: primary human hepatocytes (PHH) 3D spheroids
clinical DILI in man = conditions: cited from earlier work
[5] = system: PHH micropatterned cocultures with murine embryonic fibroblasts; conditions: micropatterned cocultures, 100x Cmax; ref Khetani 2013; cited from earlier work
[6] = FDA drug labeling DILI score, ref Chen et al., 2011
[7] = clinical DILI classification in man (POS/NEG)
[8] = clinical DILI classification used in this study, Supplementary Table 2, ref Chen et al., 2011, Guo et al., 2005, O'Brien et al., 2006, Sakatis et al., 2012, Suzuki et al., 2010, Xu et al., 2008
[9] = clinical DILI classification, Supplementary Table 1, ref Chen et al., 2011, Guo et al., 2005, O'Brien et al., 2006, Sakatis et al., 2012, Suzuki et al., 2010, Xu et al., 2008
[10] = clinical DILI classification, ref Xu et al. (2008)
[11] = reported pattern of liver damage, Supplementary Table 2, ref literature
[12] = clinical hepatotoxicity classification, ref O'Brien et al. (2003)

Row | SMILES | Cmax [1] [nM] | 2Dsw (Xu 2008) 100x (PHH 2D sandwich cultures) | Extent of hepatic metabolism [2] | Hanging-drop spheroids (Proctor 2017) 100x [3] | Chemically defined spheroids (this study) 20x [4] | Classified as (clinical DILI in man; in vivo) | Clinical DILI class (panel heading of Figure 4) (clinical DILI in man; in vivo) | DILI in vivo (clinical DILI in man; in vivo) | FDA (0-8) (clinical DILI in man; in vivo) | Type of DILI (clinical DILI in man; in vivo) | FDA (0-8) (clinical DILI in man; [6]) | DILI in vivo (clinical DILI in man; [7]) | Classified as (clinical DILI in man; [8]) | DILI in vivo (clinical DILI in man; [9]) | Xu et al. (2008) (clinical DILI in man; [10]) | Type of DILI (clinical DILI in man; [11]) | O'Brien et al. (2003) (clinical DILI in man; [12]) | further results
1 | O=C1CN(/N=C/c2ccc(-c3ccc([N+](=O)[O-])cc3)o2)C(O)=N1 [Dantrolene] | 3690 | Positive | Extensive | Negative | Positive | POS | Severe DILI | POS | 8 | Hepatocellular injury or Mixed hepatitis |  |  |  |  |  |  |  | hepatotoxicity classification in hanging-drop PHH spheroids ([3]; 100× cmax, 2 weeks, ref Proctor et al., 2017): previously missed; hepatotoxicity evaluation in CD-spheroids [4]: revealed the DILI liability; FDA (Severity) (clinical DILI in man; in vivo): most DILI concern; Guo et al. (2005) (clinical DILI in man; in vivo): 3; O'Brien et al. (2003) (clinical DILI in man; in vivo): Severely; Sakatis et al. (2012) (clinical DILI in man; in vivo): Hepatotoxic; Xu et al. (2008) (clinical DILI in man; in vivo): Positive
2 | CC(C)(C)NCC(O)COc1cccc2c1CC(O)C(O)C2 (stereo not shown) [Nadolol] |  | Negative | Minimal | Negative | Negative |  |  |  |  |  | 3 | NEG | NEG | NEG | Negative | Non-hepatotoxic |  | 
3 | CCN(CC)CC(=O)Nc1c(C)cccc1C [Lidocaine] |  | Negative |  |  |  |  |  |  |  |  |  |  |  |  |  |  |  | MPCC (Khetani 2013) 100x [5]: Positive
4 | CC(=O)[C@H]1CC[C@H]2[C@@H]3CCC4=CC(=O)CC[C@]4(C)[C@H]3CC[C@]12C [Progesterone] | 193 | Negative |  |  | Negative | NEG | DILI negative | NEG | 2 | Non-hepatotoxic |  |  |  |  |  |  |  | MPCC (Khetani 2013) 100x [5]: Negative; Sakatis et al. (2012) (clinical DILI in man; in vivo): non-hepatotixic; Suzuki et al. (2010) (clinical DILI in man; in vivo): 1; Xu et al. (2008) (clinical DILI in man; in vivo): Positive
5 | Cc1cn([C@H]2C=C[C@@H](CO)O2)c(=O)[nH]c1=O [Stavudine] | 3460 | Negative | Minimal | Negative | Negative |  |  |  |  |  | 8 | POS | POS | POS | Positive | Cholestatic injury or Mixed hepatitis | Severely | Suzuki et al. (2010) (clinical DILI in man; DILI classification score, ref Suzuki et al. (2010)): 2; FDA (Severity) (clinical DILI in man; FDA drug labeling DILI concern, ref Chen et al., 2011): most DILI concern; Sakatis et al. (2012) (clinical DILI in man; clinical hepatotoxicity classification, ref Sakatis et al. (2012)): Hepatotoxic
6 | CC(C(=O)O)c1ccc2oc(-c3ccc(Cl)cc3)nc2c1 (stereo not shown) [Benoxaprofen] | 33100 |  | Moderate | Negative | Negative | POS | Severe DILI | POS | Withdrawn | Hepatocellular injury |  |  |  |  |  |  |  | FDA (Severity) (clinical DILI in man; in vivo): most DILI concern; Suzuki et al. (2010) (clinical DILI in man; in vivo): 3
7 | CN(CCOc1ccc(CC2SC(=O)NC2=O)cc1)c1ccccn1 (stereo not shown) [Rosiglitazone] | 950 | Negative | Extensive | Positive |  |  |  |  |  |  | 3 | NEG | NEG | NEG | Negative | Non-hepatotoxic | Non-toxic | Clinical DILI classification (Figure 5) (clinical DILI in man; structural analogue pairs, Figure 5, ref Chen et al., 2011, Xu et al., 2008 and others): DILI negative
8 | CCOC(=O)c1ncn2c1CN(C)C(=O)c1cc(F)ccc1-2 [Flumazenil] | 1120 | Negative | Extensive | Negative | Negative |  |  |  |  |  | 0 | NEG | NEG | NEG | Negative | Non-hepatotoxic | Non-toxic | 
